{"source": "paper PMC8362126", "about": "“Proteolysis Targeting Chimera (PROTAC) for Macrophage Migration Inhibitory Factor (MIF) Has Anti‐Proliferative Activity in Lung Cancer Cells” (Angewandte Chemie (International Ed. in English), 2021)", "key": {"[1]": {"target": "T1, MIF (Homo sapiens, UniProt P14174)", "T1 sequence (P14174 2-115 limits assumed)": "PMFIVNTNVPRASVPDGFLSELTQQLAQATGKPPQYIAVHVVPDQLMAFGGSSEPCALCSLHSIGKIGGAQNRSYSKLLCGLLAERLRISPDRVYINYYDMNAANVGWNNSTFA", "assay": "MIF immunofluorescence staining, confocal microscopy", "type": "cell-based", "design": "endogenous in cells; host or cells: A549 (ATCC CCL-185)", "conditions": "A549 cells, 1 μM, 12 hours", "description": "Since PROTACs are relatively large heterobifunctional molecules, the efficacy of these compounds may be limited by poor cell permeability.[47] In order to estimate the cellular uptake of PROTAC MD13, the intrinsic fluorescence properties of the pomalidomide part of MD13 were employed for visualization of its subcellular localization. […] In parallel, the subcellular localization of MIF and its decrease in situ upon MD13 treatment was visualized by confocal fluorescence microscopy using a fluorescent secondary antibody.\nS5. Subcellular colocalization study\nTo visualize the intracellular location of MD13 and MIF protein, immunofluorescence staining was applied. A549 cells were seeded on glass coverslips in a 6-well plate at a density of 1x10^5 cells per well. After overnight incubation, cells were treated with 1 µM MD13 for 1 hour to study the internalization of MD13 or 12 hours to study the degradation of MIF protein.\nThe cells with 1-hour treatment were fixed with methanol before coverslips were mounted onto slides with anti-fading mounting medium with DAPI stain (Invitrogen, Waltham, MA. USA).\nTo visualize MIF protein, cells after 12-hour treatment were fixed with methanol and then unspecific binding was blocked with blocking buffer (1% BSA, 22.52 mg/mL glycine in 0.1%PBST). […]\nUSA). […] The pictures were acquired using a Leica SP8 confocal laser scanning microscope and analyzed by ImageJ. […]"}, "[2]": {"target": "T1, MIF", "assay": "MIF degradation in HEK293 cells, western-blot", "type": "cell-based", "design": "endogenous in cells", "conditions": "200 nM"}, "[3]": {"test_system": "A549 cells", "assay": "Cell cycle analysis by flow cytometry (propidium iodide)", "type": "cell-based, human", "conditions": "48 h; for proportion of cells at the G2/M phase: control group 12 %", "protocol": "The effect of MIF‐directed PROTAC MD13 on cell cycle progression was further analyzed using flow cytometry (Figure 6). A549 cells were treated with MD13 at concentrations of 1, 2, or 5 μM for the duration of 48 h before analysis using flow cytometry. […] The proportion of cells at the G2/M phase is 12 % for the control group. This percentage increases to 17 %, 19 %, and 23 % upon treatment with 1, 2, and 5 μM MD13, respectively. […]\nFlow cytometry. For cell cycle analysis, A549 cells were seeded in 6 -well plates at a density of 1x10^5 per well. The next day, the cells were treated with the appropriate compound or vehicle for 48h. Subsequently, the cells were washed with PBS (3 ×) and then harvested after trypinzation. After centrifugation at 300g, the cells were incubated with a solutio n containing 20 µg/ml propidium iodide (PI) (Sigma, P4864) and 0.1% (v/v) Triton -X100 (Sigma, T8787) for 15 min at room temperature. Fluorescence was detected by a Cytoflex flow cytometer […]\n(1 picture or pasted object on this page, not shown here)\n(Beckman Coulter, Woerden, the Netherlands) immediately. 30,000 cells were collected for each sample. Data were analyzed using FlowJo software (Tree start, Ashland, USA). […]"}, "[4]": {"target": "T1, MIF", "assay": "MIF degradation in A549 cells, cell lysate-based ELISA", "design": "endogenous in cells; host or cells: A549 (ATCC CCL-185)", "conditions": "12 h, vs DMSO, mean±SD n=3"}}, "note": "Values joined by “and” are separate entries in the source; they are usually repeats but may differ in a detail not shown here. Equal values may be shown once."}
{"smiles": "O=C1CCC(N2C(=O)c3cccc(NCCCCCCCC(=O)Nc4ccc(N5Cc6ccc(O)cc6OC5=O)cc4)c3C2=O)C(=O)N1", "note": "(centres unmarked) [MD13]", "values": [{"measurement": "MIF depletion in situ", "setting": "[1]", "value": "significantly depleted MIF"}, {"measurement": "MIF degradation", "setting": "[2]", "value": "more than 90%"}, {"measurement": "proportion of cells at the G2/M phase", "setting": "[3]; 1 μM", "value": 17, "unit": "%"}, {"measurement": "proportion of cells at the G2/M phase", "setting": "[3]; 2 μM", "value": 19, "unit": "%"}, {"measurement": "proportion of cells at the G2/M phase", "setting": "[3]; 5 μM", "value": 23, "unit": "%"}, {"measurement": "degradation [%] 0.2 μM", "setting": "[4]", "value": "71% and 71±7%"}]}
{"smiles": "CN1C(=O)CCC(N2C(=O)c3cccc(NCCCCCCCC(=O)Nc4ccc(N5Cc6ccc(O)cc6OC5=O)cc4)c3C2=O)C1=O", "note": "(centres unmarked) [MD15]", "values": [{"measurement": "effect on the cell cycle", "setting": "[3]; 5 μM", "value": "little or no effect"}, {"measurement": "degradation [%] 0.2 μM", "setting": "[4]", "value": "not capable of inducing MIF degradation and n.s."}]}
